Data from ChEMBL document CHEMBL1159029, “An Epoxydon-Derived Ester from a Phoma sp. Pathogenic to Rhubarb” (1992).

Assays:
Ipomoea = assay: Phytotoxicity against Ipomoea sp. assessed as brownish-black necrotic lesion area at 50 ug within 48 hrs by detached leaf assay; assay type: functional
[1] = tested on: Agrobacterium tumefaciens; assay: Antimicrobial activity against Agrobacterium tumefaciens C-58 at 1 mg/disk by disk assay; assay type: functional
Colletotrichum acutatum [2] = assay: Antimicrobial activity against Colletotrichum acutatum NC 1618 at 1 mg/disk by disk assay; assay type: functional
Sorghum bicolor = assay: Phytotoxicity against Sorghum bicolor assessed as brownish-black necrotic lesion area at 50 ug within 48 hrs by detached leaf assay; assay type: functional
Rheum rhabarbarum = assay: Phytotoxicity against Rhubarb assessed as brownish-black necrotic lesion area at 50 ug up to 48 hrs by detached leaf assay; assay type: functional
Aspergillus flavus [3] = assay: Antimicrobial activity against Aspergillus flavus AF3357 at 1 mg/disk by disk assay; assay type: functional, AF-3357
[4] = tested on: Curtobacterium flaccumfaciens; assay: Antimicrobial activity against Corynebacterium flaccumfaciens CF-20 at 1 mg/disk by disk assay; assay type: functional
Colletotrichum acutatum [5] = assay: Antimicrobial activity against Colletotrichum acutatum NC 1618 at 0.5 mg/disk by disk assay; assay type: functional
Penicillium chrysogenum [6] = assay: Antimicrobial activity against Penicillium notatum AT-9479 at 1 mg/disk by disk assay; assay type: functional
Escherichia coli [7] = assay: Antimicrobial activity against Escherichia coli DH 5alpha at 0.5 mg/disk by disk assay; assay type: functional
Aspergillus flavus [8] = assay: Antimicrobial activity against Aspergillus flavus AF3357 at 0.5 mg/disk by disk assay; assay type: functional, AF-3357
Datura stramonium = assay: Phytotoxicity against Datura stramonium assessed as brownish-black necrotic lesion area at 50 ug within 48 hrs by detached leaf assay; assay type: functional
Penicillium chrysogenum [9] = assay: Antimicrobial activity against Penicillium notatum AT-9479 at 0.5 mg/disk by disk assay; assay type: functional
Phoma = assay: Antimicrobial activity against Phoma sp. at 0.5 mg/disk by disk assay; assay type: functional
Nasturtium officinale = assay: Phytotoxicity against Nasturtium officinale assessed as brownish-black necrotic lesions area at 50 ug within 48 hrs by detached leaf assay; assay type: functional
Chenopodium album = assay: Phytotoxicity against Chenopodium album assessed as brownish-black necrotic lesion area at 50 ug within 48 hrs by detached leaf assay; assay type: functional
Sorghum halepense = assay: Phytotoxicity against Sorghum halepense assessed as brownish-black necrotic lesion area at 50 ug within 48 hrs by detached leaf assay; assay type: functional
Senna obtusifolia = assay: Phytotoxicity against Senna obtusifolia assessed as brownish-black necrotic lesion area at 50 ug within 48 hrs by detached leaf assay; assay type: functional
[10] = tested on: Pectobacterium carotovorum; assay: Antimicrobial activity against Erwinia carotovora EC-14 at 1 mg/disk by disk assay; assay type: functional
[11] = tested on: Curtobacterium flaccumfaciens; assay: Antimicrobial activity against Corynebacterium flaccumfaciens CF-20 at 0.5 mg/disk by disk assay; assay type: functional
[12] = tested on: Agrobacterium tumefaciens; assay: Antimicrobial activity against Agrobacterium tumefaciens C-58 at 0.5 mg/disk by disk assay; assay type: functional
[13] = tested on: Pectobacterium carotovorum; assay: Antimicrobial activity against Erwinia carotovora EC-14 at 0.5 mg/disk by disk assay; assay type: functional
Escherichia coli [14] = assay: Antimicrobial activity against Escherichia coli DH 5alpha at 1 mg/disk by disk assay; assay type: functional
Sida spinosa = assay: Phytotoxicity against Sida spinosa assessed as brownish-black necrotic lesion area at 50 ug within 48 hrs by detached leaf assay; assay type: functional
Escherichia coli [15] = assay: Antimicrobial activity against Escherichia coli DH 5alpha at 0.25 mg/disk by disk assay; assay type: functional
[16] = tested on: Curtobacterium flaccumfaciens; assay: Antimicrobial activity against Corynebacterium flaccumfaciens CF-20 at 0.25 mg/disk by disk assay; assay type: functional
Penicillium chrysogenum [17] = assay: Antimicrobial activity against Penicillium notatum AT-9479 at 0.25 mg/disk by disk assay; assay type: functional
Colletotrichum acutatum [18] = assay: Antimicrobial activity against Colletotrichum acutatum NC 1618 at 0.25 mg/disk by disk assay; assay type: functional
Aspergillus flavus [19] = assay: Antimicrobial activity against Aspergillus flavus AF3357 at 0.25 mg/disk by disk assay; assay type: functional, AF-3357
[20] = tested on: Agrobacterium tumefaciens; assay: Antimicrobial activity against Agrobacterium tumefaciens C-58 at 0.25 mg/disk by disk assay; assay type: functional
[21] = tested on: Pectobacterium carotovorum; assay: Antimicrobial activity against Erwinia carotovora EC-14 at 0.25 mg/disk by disk assay; assay type: functional

SMILES: Cc1cccc(O)c1C(=O)O
- Activity (Ipomoea): 15 mm2
- Diameter of inhibition zone [1]: 25 mm
- Diameter of inhibition zone (Colletotrichum acutatum [2]): 22 mm
- Activity (Sorghum bicolor): 37 mm2
- Activity (Rheum rhabarbarum): 55 mm2
- Diameter of inhibition zone (Aspergillus flavus [3]): 17 mm
- Diameter of inhibition zone [4]: 21 mm
- Diameter of inhibition zone (Colletotrichum acutatum [5]): 8 mm
- Diameter of inhibition zone (Penicillium chrysogenum [6]): 18 mm
- Diameter of inhibition zone (Escherichia coli [7]): 0 mm
- Diameter of inhibition zone (Aspergillus flavus [8]): 10 mm
- Activity (Datura stramonium): 48 mm2
- Diameter of inhibition zone (Penicillium chrysogenum [9]): 12 mm
- Diameter of inhibition zone (Phoma): 16 mm
- Activity (Nasturtium officinale): 17 mm2
- Activity (Chenopodium album): 27 mm2
- Activity (Sorghum halepense): 15 mm2
- Activity (Senna obtusifolia): 11 mm2
- Diameter of inhibition zone [10]: 0 mm
- Diameter of inhibition zone [11]: 16 mm
- Diameter of inhibition zone [12]: 18 mm
- Diameter of inhibition zone [13]: 0 mm
- Diameter of inhibition zone (Escherichia coli [14]): 0 mm
- Activity (Sida spinosa): 23 mm2

SMILES: Cc1cccc(O)c1C(=O)O[C@@H]1C(=O)C(CO)=C[C@@H](O)[C@H]1O
- Activity (Ipomoea): 21 mm2
- Activity (Sorghum bicolor): 41 mm2
- Activity (Rheum rhabarbarum): 18 mm2
- Activity (Datura stramonium): 9 mm2
- Activity (Nasturtium officinale): 44 mm2
- Activity (Chenopodium album): 13 mm2
- Activity (Sorghum halepense): 7 mm2
- Activity (Senna obtusifolia): 33 mm2
- Activity (Sida spinosa): 24 mm2

SMILES: CC1=C[C@@H](O)[C@H]2O[C@H]2C1=O [DESOXYEPOXYDON]
- Activity (Ipomoea): 64 mm2
- Diameter of inhibition zone (Escherichia coli [15]): 35 mm
- Activity (Sorghum bicolor): 69 mm2
- Activity (Rheum rhabarbarum): 42 mm2
- Diameter of inhibition zone [16]: 38 mm
- Diameter of inhibition zone (Penicillium chrysogenum [17]): 15 mm
- Diameter of inhibition zone (Colletotrichum acutatum [18]): 40 mm
- Diameter of inhibition zone (Colletotrichum acutatum [5]): 60 mm
- Diameter of inhibition zone (Escherichia coli [7]): 44 mm
- Diameter of inhibition zone (Aspergillus flavus [19]): 15 mm
- Diameter of inhibition zone (Aspergillus flavus [8]): 22 mm
- Activity (Datura stramonium): 73 mm2
- Diameter of inhibition zone [20]: 43 mm
- Diameter of inhibition zone (Penicillium chrysogenum [9]): 27 mm
- Diameter of inhibition zone (Phoma): 30 mm
- Activity (Nasturtium officinale): 34 mm2
- Activity (Chenopodium album): 57 mm2
- Activity (Sorghum halepense): 30 mm2
- Activity (Senna obtusifolia): 51 mm2
- Diameter of inhibition zone [11]: 49 mm
- Diameter of inhibition zone [21]: 31 mm
- Diameter of inhibition zone [12]: 56 mm
- Diameter of inhibition zone [13]: 45 mm
- Activity (Sida spinosa): 74 mm2

SMILES: O=C1C(CO)=C[C@@H](O)[C@H]2O[C@@H]12 [EPOXYDON]
- Activity (Ipomoea): 51 mm2
- Diameter of inhibition zone (Escherichia coli [15]): 18 mm
- Activity (Sorghum bicolor): 31 mm2
- Activity (Rheum rhabarbarum): 27 mm2
- Diameter of inhibition zone [16]: 12 mm
- Diameter of inhibition zone (Penicillium chrysogenum [17]): 0 mm
- Diameter of inhibition zone (Colletotrichum acutatum [18]): 10 mm
- Diameter of inhibition zone (Colletotrichum acutatum [5]): 12 mm
- Diameter of inhibition zone (Escherichia coli [7]): 25.3 mm
- Diameter of inhibition zone (Aspergillus flavus [19]): 0 mm
- Diameter of inhibition zone (Aspergillus flavus [8]): 8 mm
- Activity (Datura stramonium): 31 mm2
- Diameter of inhibition zone [20]: 10 mm
- Diameter of inhibition zone (Penicillium chrysogenum [9]): 10 mm
- Activity (Nasturtium officinale): 41 mm2
- Activity (Chenopodium album): 62 mm2
- Activity (Sorghum halepense): 37 mm2
- Activity (Senna obtusifolia): 17 mm2
- Diameter of inhibition zone [11]: 20 mm
- Diameter of inhibition zone [21]: 9 mm
- Diameter of inhibition zone [12]: 12 mm
- Diameter of inhibition zone [13]: 17 mm
- Activity (Sida spinosa): 25 mm2
